{"source": "paper PMC11252418", "about": "“Specific glycine-dependent enzyme motion determines the potency of conformation selective inhibitors of threonyl-tRNA synthetase” (Communications Biology, 2024)", "key": {"ObaO_S464G": {"test_system": "ObaO_S464G", "assay": "Thermal shift assay (TSA)", "format": "binding, Pseudomonas fluorescens", "experimental": "(§1) The EcThrRS_WT and L489M/G463S/G463S_Q484A/G463A/A316N mutant proteins, ObaO_WT and ObaO_S464G mutant proteins were prepared at 2 μM in buffer containing 25 mM Tris-HCl pH 7.5, 200 mM NaCl, and 20 μM OB (GlpBio, US) or BN (GlpBio, US) or ddH2O in equal volumes since the compounds were diluted with ddH2O to 1 mM as stocks. […] SYPRO orange dye (Sigma, USA) was diluted in assay buffer containing 25 mM Tris-HCl pH 7.5 and 200 mM NaCl to a 40× concentration, and was added to the mixture to a final 4× concentration. Aliquots (20 μL) were added to a 96-well PCR plate. After complete mixing, the final solutions were heated from 25 to 95 °C at a rate of 0.015 °C/s, and fluorescence signals were monitored by QuantStudio 3 (Applied Biosystems by Thermo Fisher Scientific, USA). The melting temperature (Tm) was calculated through a previously established method[56],[57]."}, "ObaO_WT": {"test_system": "ObaO_WT", "assay": "Thermal shift assay (TSA)", "format": "binding, Pseudomonas fluorescens", "experimental": "as §1"}, "[1]": {"test_system": "in vitro translation system of Kluyveromyces marxianus", "format": "biochemical", "settings": "K. marxianus extract, rebuttal letter", "from_the_text": "lactone produced by Pseudomonas fluorescens. Taxonomy, fermentation and biological properties. The Journal of antibiotics 37, 802-803 (1984).\n28 Kumar, P. et al. l-Threonine Transaldolase Activity Is Enabled by a Persistent Catalytic Intermediate. ACS chemical biology 16, 86-95 (2021).\n29 Schaffer, J. E., Reck, M. R., Prasad, N. K. & Wencewicz, T. A. beta-Lactone formation during product release from a nonribosomal peptide synthetase. Nat Chem Biol 13, […]\n30 Scott, T. A., Heine, D., Qin, Z. & Wilkinson, B. An L-threonine transaldolase is required for L-threo-beta-hydroxy-alpha-amino acid assembly during obafluorin biosynthesis. Nature communications 8, 15935 (2017).\n31 Kreitler, D. F., Gemmell, E. M., Schaffer, J. E., Wencewicz, T. A. & Gulick, A. M. The structural basis of N-acyl-alpha-amino-beta-lactone formation catalyzed by a nonribosomal peptide synthetase. Nature communications 10, 3432 (2019).\n32 Jones, M. A. et al. Discovery of L-threonine transaldolases for enhanced biosynthesis of beta-hydroxylated amino acids. Communications biology 6, 929 (2023).\n33 Batey, S. F. D. et al. The catechol moiety of obafluorin is essential for antibacterial\n34 Qiao, H. et al. Tyrosine-targeted covalent inhibition of a tRNA synthetase aided by zinc ion. Communications biology 6, 107 (2023).\nWhether OB has inhibitory activity against eukaryotic ThrRS is also a great question. […]"}, "[2]": {"settings": "2 μM protein, 20 μM compound, mean n = 4"}}, "note": "“And” between values parts separate entries of the source, which are not always exact repeats. Equal values may be shown once."}
{"compound": "O=C(N[C@@H]1C(=O)O[C@@H]1Cc1ccc([N+](=O)[O-])cc1)c1cccc(O)c1O", "note": "[OB, Obafluorin]", "values": [{"measurement": "ΔTm (increase of Tm)", "setting": "ObaO_S464G; [2]", "result": 14.1, "unit": "°C"}, {"measurement": "ΔTm, single replicates", "setting": "ObaO_S464G; source data sheet Fig.S11a, ObaO_S464G, in °C (unit assumed)", "result": "14.753 and 14.195 and 14.134 and 13.328"}, {"measurement": "ΔTm (increase of Tm)", "setting": "ObaO_WT; [2]", "result": 3.2, "unit": "°C"}, {"measurement": "ΔTm, single replicates", "setting": "ObaO_WT; source data sheet Fig.S11a, ObaO_WT, in °C (unit assumed)", "result": "3.257 and 4.712 and 2.142 and 2.576"}, {"measurement": "IC50", "setting": "[1]", "result": "~9", "unit": "µM"}]}
